Patent EP0054873A1, “3,4-Di-substituted 1,2,5-oxadiazole-2 oxides, method for their preparation and pharmaceutical compositions containing them” (CASSELLA Aktiengesellschaft, priority 1980, dated 1982)

System: Bastardhunden
Assay: Haemodynamic study of antianginal and antihypertensive effect in anaesthetised mongrel dogs
Type: in vivo
Details: change from steady state
Experimental: Die Untersuchungen über die antianginöse und antihypertensive Wirkung der Verbindungen der Formel I wurden an Bastardhunden beiderlei Geschlechts in Pentobarbital-Narkose (30 bis 40 mg/kg i.v.) oder in Urethan-Chloralose-Narkose (3 ml/kg Urethan-Chloralose-Gemisch i.v. = 20 mg/kg Chloralose und 250 mg/kg Urethan) durchgeführt. Die Beatmung der Tiere erfolgte mit einem Bird-Mark-7-Respi- rator. […] Während des gesamten Versuchs erhielten die Tiere mit Pentobarbital-Narkose eine Dauerinfusion von Pentobarbital i.v. = 4 mg/kg/6ml/h, um eine konstante Narkosetiefe zu gewährleisten; die Tiere mit Urethan-Chloralose-Narkose erhielten keine Dauerinfusion. Die Infusion wurde durch die Vena cephalica gegeben. Nach der Präparation des Versuchstieres wurde ca. 1 Stunde gewartet, bis sich alle haemodynamischen Parameter eingestellt hatten (steady state). Danach wurde mit dem eigentlichen Versuch begonnen.
Der systolische und diastolische Blutdruck wurde peripher in der Arteria femoralis über einen Statham-Druckaufnehmer gemessen. Ein über die Arteria carotis in den linken Ventrikel geschobener Millar-Tip-Katheter lieferte das Signal für den LVEDP(linksvcntrikulärer enddiastolischer Druck) und die Herzfrequenz. Mit einem zweiten, über die Vena ju-fularis eingeschobenen Tip-Katheter wurde der mittlere Blutdruck in der Arteria pulmonalis erfaßt. Die erhaltenen Ergebnisse sind in der folgenden Tabelle angegeben.

Row | SMILES | BDm Δ (mittlerer peripherer Blutdruck) (Dosis 0,1 mg/kg i.v.) [mmHg] | LVEDP Δ (linksventrikulärer enddiastolischer Druck) (Dosis 0,1 mg/kg i.v.) | PAP Δ (mittlerer Pulmonalarteriendruck) (Dosis 0,1 mg/kg i.v.) [mmHg] | BDm Δ (mittlerer peripherer Blutdruck) (Dosis 0,05 mg/kg i.v.) [mmHg] | LVEDP Δ (linksventrikulärer enddiastolischer Druck) (Dosis 0,05 mg/kg i.v.) [mm/Hg] | PAP Δ (mittlerer Pulmonalarteriendruck) (Dosis 0,05 mg/kg i.v.) [mmHg]
1 | COCCNC(=O)c1no[n+]([O-])c1C [B] | -25 | -2,5 mm/Hg | -1 |  |  | 
2 | CNC(=O)c1c(C)no[n+]1[O-] [A] |  |  |  | -30 | -3 | -2
3 | Cc1c(C(=O)NCc2cccnc2)no[n+]1[O-] [C] |  |  |  | -35 | -2 | -1
